Measured values reported in US10870638B2, “Pyridazinone compound or its salt, and herbicide containing it” (ISHIHARA SANGYO KAISHA, LTD., priority 2016, dated 2020).

What was measured:
Experiment in all cases: Test Example 1: foliar treatment, growth inhibition rate on 14th day
Format in all cases: in vivo
Details in all cases: active ingredient amount 31 g/ha, 14th day after application
[1] = system: italian ryegrass (Lolium multiflorum Lam.)
How it was run: (§1)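 Visual 0–100% inhibition scoring (100 = complete kill) at 14 days after foliar treatment of soil-grown seedlings at species-specific leaf stages, with the compound sprayed as a wettable powder or emulsifiable concentrate dilution.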

[2] = system: barnyardgrass (Echinochloa crus-qalli L.)
How it was run: as §1

[3] = system: wild oat (Avena fatua L.)
How it was run: (§2)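 Plants in upland soil were sprayed on the foliage at early leaf stages (wild oat 0.4–1.2, rice 0.2–2.7, green foxtail 0.5–3.2, soybean primary leaf) with wettable powder or emulsifiable concentrate formulations. Spray volume was 1,000 L/ha water containing 0.1 vol% spreader, at prescribed active-ingredient rates. Growth inhibition (0 = untreated, 100 = complete kill) was scored visually on day 14.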

[4] = system: corn (Zea mays L.)
How it was run: as §1

[5] = system: crabgrass (Digitaria sanquinalis L.)
How it was run: as §1

[6] = system: redroot pigweed (Amaranthus retroflexus L.)
How it was run: as §1

[7] = system: rice (Oryza sativa L.)
How it was run: as §2

[8] = system: wheat (Triticum aestivum L.)
How it was run: as §1

[9] = system: green foxtail (Setaria viridis L.)
How it was run: as §2

[10] = system: soybean (Glycine max Merr.)
How it was run: as §2

[11] = visual, 0 = non-treated, 100 = complete kill

## CC(=O)Oc1c(C)nn(C)c(=O)c1-c1cc(Oc2ncc(Cl)cn2)ccc1C [Compound 2-124]
[1]
  Growth inhibition rate (%) Italian ryegrass: 0%
[2]
  Growth inhibition rate (%) Barnyardgrass: 85%
[3]
  Growth inhibition rate (%) Wild oat: 0%
[4]
  Growth inhibition rate (%) Corn: 0%
[5]
  Growth inhibition rate (%) Crabgrass: 80%
[6]
  Growth inhibition rate (%) Redroot pigweed: 30%
[7]
  Growth inhibition rate (%) Rice: 0%
[8]
  Growth inhibition rate (%) Wheat: 0%
[9]
  Growth inhibition rate (%) Green foxtail: 80%
[10]
  Growth inhibition rate (%) Soybean: 0%

## C=CCOc1c(C)nn(C)c(=O)c1-c1cc(Oc2cnc3cc(Cl)ccc3n2)ccc1C [Compound 3-74]
[1]; [11]
  Growth inhibition rate (%) Italian ryegrass: 0%
[2]; [11]
  Growth inhibition rate (%) Barnyardgrass: 93%
[3]; [11]
  Growth inhibition rate (%) Wild oat: 25%
[4]; [11]
  Growth inhibition rate (%) Corn: 20%
[5]; [11]
  Growth inhibition rate (%) Crabgrass: 20%
[6]; [11]
  Growth inhibition rate (%) Redroot pigweed: 0%
[7]; [11]
  Growth inhibition rate (%) Rice: 0%
[8]; [11]
  Growth inhibition rate (%) Wheat: 0%
[9]; [11]
  Growth inhibition rate (%) Green foxtail: 95%
[10]; [11]
  Growth inhibition rate (%) Soybean: 0%

## Cc1ccc(Oc2cnc3cc(Cl)ccc3n2)cc1-c1c(OC(=O)C(C)(C)C)c(C)nn(C)c1=O [Compound 3-42]
[1]
  Growth inhibition rate (%) Italian ryegrass: 95%
[2]
  Growth inhibition rate (%) Barnyardgrass: 100%
[3]
  Growth inhibition rate (%) Wild oat: 100%
[4]
  Growth inhibition rate (%) Corn: 30%
[5]
  Growth inhibition rate (%) Crabgrass: 20%
[6]
  Growth inhibition rate (%) Redroot pigweed: 10%
[7]
  Growth inhibition rate (%) Rice: 60%
[8]
  Growth inhibition rate (%) Wheat: 20%
[9]
  Growth inhibition rate (%) Green foxtail: 98%
[10]
  Growth inhibition rate (%) Soybean: 0%

## Cc1ccc(Oc2cnc3cc(Cl)ccc3n2)cc1-c1c(OC(C)OC(=O)OC2CCCCC2)c(C)nn(C)c1=O (centres unmarked) [Compound 3-76]
[1]; [11]
  Growth inhibition rate (%) Italian ryegrass: 10%
[2]; [11]
  Growth inhibition rate (%) Barnyardgrass: 93%
[3]; [11]
  Growth inhibition rate (%) Wild oat: 0%
[4]; [11]
  Growth inhibition rate (%) Corn: 0%
[5]; [11]
  Growth inhibition rate (%) Crabgrass: 30%
[6]; [11]
  Growth inhibition rate (%) Redroot pigweed: 0%
[7]; [11]
  Growth inhibition rate (%) Rice: 0%
[8]; [11]
  Growth inhibition rate (%) Wheat: 0%
[9]; [11]
  Growth inhibition rate (%) Green foxtail: 93%
[10]; [11]
  Growth inhibition rate (%) Soybean: 0%

## Cc1ccc(Oc2cnc3cc(Cl)ccc3n2)cc1-c1c(OC(=O)N2CCOCC2)c(C)nn(C)c1=O [Compound 3-39]
[1]
  Growth inhibition rate (%) Italian ryegrass: 0%
[2]
  Growth inhibition rate (%) Barnyardgrass: 88%
[3]
  Growth inhibition rate (%) Wild oat: 0%
[4]
  Growth inhibition rate (%) Corn: 15%
[5]
  Growth inhibition rate (%) Crabgrass: 0%
[6]
  Growth inhibition rate (%) Redroot pigweed: 0%
[7]
  Growth inhibition rate (%) Rice: 0%
[8]
  Growth inhibition rate (%) Wheat: 0%
[9]
  Growth inhibition rate (%) Green foxtail: 95%
[10]
  Growth inhibition rate (%) Soybean: 0%

## CC(=O)Oc1c(C)nn(C)c(=O)c1-c1cc(Oc2ccc(C(F)(F)F)cc2)ccc1C [Compound 2-118]
[1]
  Growth inhibition rate (%) Italian ryegrass: 70%
[2]
  Growth inhibition rate (%) Barnyardgrass: 85%
[3]
  Growth inhibition rate (%) Wild oat: 88%
[4]
  Growth inhibition rate (%) Corn: 20%
[5]
  Growth inhibition rate (%) Crabgrass: 40%
[6]
  Growth inhibition rate (%) Redroot pigweed: 0%
[7]
  Growth inhibition rate (%) Rice: 80%
[8]
  Growth inhibition rate (%) Wheat: 50%
[9]
  Growth inhibition rate (%) Green foxtail: 60%
[10]
  Growth inhibition rate (%) Soybean: 10%

## Cc1ccc(Oc2cnc3cc(Cl)ccc3n2)cc1-c1c(OC(=O)C2CC2)c(C)nn(C)c1=O [Compound 3-37]
[1]
  Growth inhibition rate (%) Italian ryegrass: 99%
[2]
  Growth inhibition rate (%) Barnyardgrass: 100%
[3]
  Growth inhibition rate (%) Wild oat: 98%
[4]
  Growth inhibition rate (%) Corn: 45%
[5]
  Growth inhibition rate (%) Crabgrass: 99%
[6]
  Growth inhibition rate (%) Redroot pigweed: 10%
[7]
  Growth inhibition rate (%) Rice: 95%
[8]
  Growth inhibition rate (%) Wheat: 99%
[9]
  Growth inhibition rate (%) Green foxtail: 100%
[10]
  Growth inhibition rate (%) Soybean: 30%

## CC(=O)Oc1c(C)nn(C)c(=O)c1-c1cc(Oc2ncc(Cl)cc2Cl)ccc1C [Compound 2-128]
[1]
  Growth inhibition rate (%) Italian ryegrass: 93%
[2]
  Growth inhibition rate (%) Barnyardgrass: 85%
[3]
  Growth inhibition rate (%) Wild oat: 88%
[4]
  Growth inhibition rate (%) Corn: 75%
[5]
  Growth inhibition rate (%) Crabgrass: 83%
[6]
  Growth inhibition rate (%) Redroot pigweed: 0%
[7]
  Growth inhibition rate (%) Rice: 45%
[8]
  Growth inhibition rate (%) Wheat: 60%
[9]
  Growth inhibition rate (%) Green foxtail: 75%
[10]
  Growth inhibition rate (%) Soybean: 0%

## Cc1ccc(Oc2cnc3cc(Cl)ccc3n2)cc1-c1c(OCC#N)c(C)nn(C)c1=O [Compound 3-78]
[1]; [11]
  Growth inhibition rate (%) Italian ryegrass: 10%
[2]; [11]
  Growth inhibition rate (%) Barnyardgrass: 99%
[3]; [11]
  Growth inhibition rate (%) Wild oat: 40%
[4]; [11]
  Growth inhibition rate (%) Corn: 0%
[5]; [11]
  Growth inhibition rate (%) Crabgrass: 93%
[6]; [11]
  Growth inhibition rate (%) Redroot pigweed: 0%
[7]; [11]
  Growth inhibition rate (%) Rice: 0%
[8]; [11]
  Growth inhibition rate (%) Wheat: 0%
[9]; [11]
  Growth inhibition rate (%) Green foxtail: 98%
[10]; [11]
  Growth inhibition rate (%) Soybean: 0%

## Cc1ccc(Oc2cnc3cc(Cl)ccc3n2)cc1-c1c(OC(=O)OC(C)C)c(C)nn(C)c1=O [Compound 3-60]
[1]; [11]
  Growth inhibition rate (%) Italian ryegrass: 95%
[2]; [11]
  Growth inhibition rate (%) Barnyardgrass: 99%
[3]; [11]
  Growth inhibition rate (%) Wild oat: 98%
[4]; [11]
  Growth inhibition rate (%) Corn: 20%
[5]; [11]
  Growth inhibition rate (%) Crabgrass: 95%
[6]; [11]
  Growth inhibition rate (%) Redroot pigweed: 0%
[7]; [11]
  Growth inhibition rate (%) Rice: 10%
[8]; [11]
  Growth inhibition rate (%) Wheat: 93%
[9]; [11]
  Growth inhibition rate (%) Green foxtail: 100%
[10]; [11]
  Growth inhibition rate (%) Soybean: 10%

## Cc1ccc(Oc2cnc3cc(Cl)ccc3n2)cc1-c1c(OC(=S)N(C)C)c(C)nn(C)c1=O [Compound 3-67]
[1]; [11]
  Growth inhibition rate (%) Italian ryegrass: 99%
[2]; [11]
  Growth inhibition rate (%) Barnyardgrass: 100%
[3]; [11]
  Growth inhibition rate (%) Wild oat: 100%
[4]; [11]
  Growth inhibition rate (%) Corn: 50%
[5]; [11]
  Growth inhibition rate (%) Crabgrass: 95%
[6]; [11]
  Growth inhibition rate (%) Redroot pigweed: 0%
[7]; [11]
  Growth inhibition rate (%) Rice: 40%
[8]; [11]
  Growth inhibition rate (%) Wheat: 99%
[9]; [11]
  Growth inhibition rate (%) Green foxtail: 100%
[10]; [11]
  Growth inhibition rate (%) Soybean: 0%

## COCCOCOc1c(C)nn(C)c(=O)c1-c1cc(Oc2ncc(C(F)(F)F)cc2Cl)ccc1C [1-134]
[1]
  Growth inhibition rate (%) Italian ryegrass: 98%
[2]
  Growth inhibition rate (%) Barnyardgrass: 98%
[3]
  Growth inhibition rate (%) Wild oat: 99%
[4]
  Growth inhibition rate (%) Corn: 93%
[5]
  Growth inhibition rate (%) Crabgrass: 99%
[6]
  Growth inhibition rate (%) Redroot pigweed: 0%
[7]
  Growth inhibition rate (%) Rice: 88%
[8]
  Growth inhibition rate (%) Wheat: 98%
[9]
  Growth inhibition rate (%) Green foxtail: 100%
[10]
  Growth inhibition rate (%) Soybean: 0%

## CC(=O)Oc1c(C(F)(F)F)nn(C)c(=O)c1-c1cc(Oc2ncc(C(F)(F)F)cc2Cl)ccc1C [1-142]
[1]
  Growth inhibition rate (%) Italian ryegrass: 20%
[2]
  Growth inhibition rate (%) Barnyardgrass: 90%
[3]
  Growth inhibition rate (%) Wild oat: 85%
[4]
  Growth inhibition rate (%) Corn: 50%
[5]
  Growth inhibition rate (%) Crabgrass: 88%
[6]
  Growth inhibition rate (%) Redroot pigweed: 20%
[7]
  Growth inhibition rate (%) Rice: 15%
[8]
  Growth inhibition rate (%) Wheat: 20%
[9]
  Growth inhibition rate (%) Green foxtail: 40%
[10]
  Growth inhibition rate (%) Soybean: 40%

## COc1ccc(Oc2ncc(C(F)(F)F)cc2Cl)cc1-c1c(O)c(C)nn(C)c1=O [1-10]
[1]
  Growth inhibition rate (%) Italian ryegrass: 0%
[2]
  Growth inhibition rate (%) Barnyardgrass: 70%
[3]
  Growth inhibition rate (%) Wild oat: 20%
[4]
  Growth inhibition rate (%) Corn: 60%
[5]
  Growth inhibition rate (%) Crabgrass: 90%
[6]
  Growth inhibition rate (%) Redroot pigweed: 0%
[7]
  Growth inhibition rate (%) Rice: 0%
[8]
  Growth inhibition rate (%) Wheat: 0%
[9]
  Growth inhibition rate (%) Green foxtail: 90%
[10]
  Growth inhibition rate (%) Soybean: 20%
